“And” between values parts separate entries of the source, which are not always exact repeats. Equal values may be shown once.
Test: xn = mol fraction of the nth substance listed
Settings: 100 kPa; for electrical conductivity: Alternating current cell with electrodes; for viscosity: Concentric cylinders viscometry; for mass density: Vibrating tube method

CCCCCCCCOS(=O)(=O)[O-].CCn1cc[n+](C)c1 [1-ethyl-3-methylimidazolium octyl sulfate] + O
Settings	electrical conductivity	mass density	viscosity
287.1 K, Liquid, x1 = 0.1402	–	1076.8 kg/m3	–
287.1 K, Liquid, x1 = 0.1605	–	1079.2 kg/m3	–
287.1 K, Liquid, x1 = 0.2632	–	1088.7 kg/m3	–
287.1 K, Liquid, x1 = 0.3076	0.375 S/m and 0.377 S/m	1091.2 kg/m3	169.3 mPa·s
287.6 K, Glass, x1 = 0.2632	0.469 S/m	–	10720 mPa·s and 11920 mPa·s
287.6 K, Liquid, x1 = 0.2632	–	1088.5 kg/m3 and 1088.8 kg/m3	–
288.1 K, Glass, x1 = 0.1402	–	–	1042 mPa·s
288.1 K, Glass, x1 = 0.1605	–	–	13780 mPa·s and 15800 mPa·s
288.1 K, Glass, x1 = 0.1766	0.844 S/m and 0.846 S/m	–	–
288.1 K, Glass, x1 = 0.2119	0.682 S/m and 0.681 S/m	–	–
288.1 K, Glass, x1 = 0.2632	0.48 S/m and 0.478 S/m	–	8600 mPa·s
288.1 K, Liquid, x1 = 0.0401	1.7 S/m	–	–
288.1 K, Liquid, x1 = 0.0586	1.67 S/m	–	–
288.1 K, Liquid, x1 = 0.0803	1.51 S/m	–	–
288.1 K, Liquid, x1 = 0.1197	–	1072.5 kg/m3	78.76 mPa·s
288.1 K, Liquid, x1 = 0.1402	1.03 S/m	1076 kg/m3	–
288.1 K, Liquid, x1 = 0.1605	0.932 S/m and 0.934 S/m	1078.8 kg/m3 and 1078.7 kg/m3	–
288.1 K, Liquid, x1 = 0.2632	–	1088.3 kg/m3	–
288.1 K, Liquid, x1 = 0.3076	0.389 S/m and 0.388 S/m	1090.5 kg/m3	159.4 mPa·s
288.1 K, Liquid, x1 = 0.3555	0.293 S/m and 0.294 S/m	1092.7 kg/m3	183.7 mPa·s
288.1 K, Liquid, x1 = 0.4108	0.24 S/m and 0.237 S/m	1094.5 kg/m3	206.8 mPa·s
288.1 K, Liquid, x1 = 0.4688	0.166 S/m and 0.159 S/m	–	–
288.1 K, Liquid, x1 = 0.5001	0.15 S/m	–	–
288.6 K, Glass, x1 = 0.2632	0.485 S/m	–	–
289.1 K, Glass, x1 = 0.1402	–	–	396.1 mPa·s
289.1 K, Glass, x1 = 0.1605	–	–	8364 mPa·s and 8406 mPa·s
289.1 K, Glass, x1 = 0.1766	0.868 S/m and 0.871 S/m	–	–
289.1 K, Glass, x1 = 0.2632	0.489 S/m	–	3435 mPa·s
289.1 K, Liquid, x1 = 0.1197	1.21 S/m	–	–
289.1 K, Liquid, x1 = 0.1402	1.06 S/m	1074.9 kg/m3	–
289.1 K, Liquid, x1 = 0.1605	0.964 S/m and 0.963 S/m	1078.4 kg/m3	–
289.1 K, Liquid, x1 = 0.2632	0.494 S/m	1087.8 kg/m3	–
289.1 K, Liquid, x1 = 0.3076	–	1089.8 kg/m3	150 mPa·s
289.6 K, Glass, x1 = 0.2632	–	–	1082 mPa·s
289.6 K, Liquid, x1 = 0.2632	0.503 S/m	1087.9 kg/m3	–
290.1 K, Glass, x1 = 0.1402	–	–	213.6 mPa·s
290.1 K, Glass, x1 = 0.1605	–	–	5299 mPa·s and 4500 mPa·s
290.1 K, Glass, x1 = 0.1766	0.895 S/m and 0.899 S/m	–	–
290.1 K, Glass, x1 = 0.2119	0.728 S/m	–	–
290.1 K, Liquid, x1 = 0.1402	–	1074.2 kg/m3	–
290.1 K, Liquid, x1 = 0.1605	–	1077.9 kg/m3 and 1078 kg/m3	–
290.1 K, Liquid, x1 = 0.2632	0.511 S/m	–	–
290.1 K, Liquid, x1 = 0.3076	–	1089.1 kg/m3	141.3 mPa·s
291.1 K, Glass, x1 = 0.1402	–	–	122.8 mPa·s
291.1 K, Glass, x1 = 0.1605	–	–	2756 mPa·s and 2752 mPa·s
291.1 K, Glass, x1 = 0.1766	0.924 S/m and 0.925 S/m	–	–
291.1 K, Glass, x1 = 0.2119	0.759 S/m and 0.757 S/m	–	–
291.1 K, Liquid, x1 = 0.0803	1.63 S/m	–	–
291.1 K, Liquid, x1 = 0.1402	1.12 S/m	1073.7 kg/m3	–
291.1 K, Liquid, x1 = 0.1605	1.02 S/m	1077.5 kg/m3	–
291.1 K, Liquid, x1 = 0.2632	0.527 S/m	1085.5 kg/m3	118.9 mPa·s
291.1 K, Liquid, x1 = 0.3076	0.441 S/m and 0.442 S/m	1088.1 kg/m3	133.1 mPa·s
291.1 K, Liquid, x1 = 0.3555	0.332 S/m	–	–
291.1 K, Liquid, x1 = 0.4108	0.271 S/m	–	–
291.1 K, Liquid, x1 = 0.4688	0.192 S/m	–	–
292.1 K, Glass, x1 = 0.1605	–	–	1353 mPa·s and 597.3 mPa·s
292.1 K, Glass, x1 = 0.1766	0.951 S/m and 0.953 S/m	–	–
292.1 K, Glass, x1 = 0.2119	0.779 S/m and 0.781 S/m	–	–
292.1 K, Liquid, x1 = 0.1402	–	1073.2 kg/m3	80.8 mPa·s
292.1 K, Liquid, x1 = 0.1605	–	1076.9 kg/m3 and 1076.7 kg/m3	–
292.1 K, Liquid, x1 = 0.2632	0.543 S/m	–	–
293.1 K, Glass, x1 = 0.1605	–	–	589.1 mPa·s and 232.2 mPa·s
293.1 K, Glass, x1 = 0.1766	0.977 S/m and 0.979 S/m	–	–
293.1 K, Glass, x1 = 0.2119	0.805 S/m	–	–
293.1 K, Liquid, x1 = 0.0401	1.92 S/m	–	–
293.1 K, Liquid, x1 = 0.0586	1.91 S/m	–	–
293.1 K, Liquid, x1 = 0.0803	1.72 S/m	–	–
293.1 K, Liquid, x1 = 0.1197	1.36 S/m	–	59.82 mPa·s
293.1 K, Liquid, x1 = 0.1402	1.19 S/m	–	69.89 mPa·s
293.1 K, Liquid, x1 = 0.1605	1.08 S/m	–	–
293.1 K, Liquid, x1 = 0.2119	0.804 S/m	–	–
293.1 K, Liquid, x1 = 0.2632	0.564 S/m and 0.562 S/m	–	106.4 mPa·s
293.1 K, Liquid, x1 = 0.3076	0.477 S/m and 0.479 S/m	–	117.6 mPa·s
293.1 K, Liquid, x1 = 0.3555	0.357 S/m and 0.359 S/m	–	–
293.1 K, Liquid, x1 = 0.4108	0.294 S/m and 0.293 S/m	–	–
293.1 K, Liquid, x1 = 0.4688	0.214 S/m	–	–
293.1 K, Liquid, x1 = 0.5001	0.19 S/m and 0.191 S/m	–	–
